Data on 19 molecules can be found in US20240300905A1, “Quinazoline Compounds and Uses” (Prosetta Biosciences, Inc., priority 2023, published 2024).

What all share (type): cell-based
Assay [1] relates to plasmodium. The assay is described as follows: Malaria screen (SYBR green fluorescence, plasmodium parasitemia culture). Particulars: 0.5% plasmodium parasitemia culture, 48 hours. The protocol: Compound was added to a 0.5% plasmodium parasitemia culture for 48 hours, then treated with SYBR green (a dye with marked fluorescence enhancement upon contact with plasmodium DNA) and the fluorescence was measured in drug treated versus untreated cells to determine inhibitory effects (Smilkstein, et al., “Simple and inexpensive fluorescence-based technique for high-throughput antimalarial drug screening,” Antimicrob Agents Chemother, 2004 May; 48(5):1803-6. doi: 10.1128/AAC.48.5.1803-1806.2004. PMID: 15105138: PMCID: PMC400546).

Assay [2] has as its system Hennes-20 cells. The experiment in a line: Hennes-20 oncology screen (low vs high plating density, alamar Blue). Particulars: 72 h, Hennes-20 cells, 72 hours compound incubation, alamar Blue; read-out: EC50. The protocol: All compounds mentioned as active were tested in Hennes. Select hits from the Hennes screen were sent for additional anti-cancer testing.
To screen compounds for oncology activity Hennes-20 cells were plated at low (500 cells/well) versus high (15,000 cells/well) densities and treated with DMSO (vehicle) or dose-titration of compounds. The rationale for this screen is that an intrinsically toxic compound should kill cells regardless of density, including in Hennes-20 cells. However, a compound that selectively triggers the arrest of proliferation will inhibit cell growth when plated at a low density will appear cytotoxic due to inhibition of cell growth when plated at a low density but will appear non-toxic to cells plated at a high density where the cells are approaching confluence and the readout detected by a cell viability assay is already close to the maximum.
To conduct the Hennes-20 screen, two 96 well plates were seeded with Hennes 20 cells in parallel where one was plated at a density of 500 cells/well and the other was plated at a density of 15,000 cells/well. 90 uL of minimum essential media was added to each well and plates were placed in a 37 degrees Celsius incubator for 24 hours. The next day, 10 ul of media containing dilutions of compound in DMSO were added to each plate. Six wells on each plate received 10 ul of media containing only DMSO. Each well was gently mixed 5 times with a 100 ul pipette. Plates were incubated at 37 degrees Celsius for 72 hours then 10 uL of alamar Blue was added to each well. Wells were mixed 5 times then incubated at 37 degrees Celsius for […]. Plates were then read at 530/590.
The rationale for the screen is as follows: Hennes-20 cells lack endogenous apoptosis. Cells plated at low density will proliferate and approach confluence in 72 hrs. A drug that arrests proliferation may have its proliferation blocking effect masked by the triggering of endogenous apoptosis. However, in the Hennes line, lacking endogenous apoptosis, such an arrest is manifest as a dose-dependent maintenance at low cell density. Since the high-density cells are plated close to confluence, the difference between Alamar Blue cell survival readings after 72 hrs reflects the ability of the drug to block proliferation in the low density-plated cells. In the high density-plated cells any diminution of Alamar Blue readout vs vehicle control is due to intrinsic toxicity, not proliferation arrest, since cells were already at confluence. Thus, a compound that appears toxic (low Alamar Blue readings after 72 hrs) on the low-density plate, but which appears non-toxic (high Alamar Blue readings after 72 hrs) on the high-density plate, must be arresting proliferation, since intrinsic compound toxicity should be observed at both low and high cell densities, not selectively on the low-density plate.

Assay [3] has as its system NL4-3 Rluc virus. The experiment in a line: HIV screen (NL4-3 Rluc virus in MT-2 cells, luciferase readout). Particulars: Human immunodeficiency virus 1, NL43, MT2, 96 h. On the procedure: MT-2 cells were preseeded in 96-well plates in 100 uL of complete RPMI. Multiple concentrations of PAV-951 were serially diluted in DMSO then into an infection media prepared by diluting NL4-3 Rluc virus stock to 400 IU/100 uL with complete RPMI, which was transferred onto the MT-2 cells with a final MOI of 0.02 and final DMSO concentration of 1% in infected places. One well received DMSO only, instead of PAV-951, and one well received medium only for normalization and background collection. Cells were incubated at 37 degrees Celsius for 96 hours. 100 ul of medium was removed and discarded and 10 uL of 15 uM EnduRen luciferase substrate was added to each well, followed by incubation for 1.5 hours at 37 degrees Celsius. Plates were read on a luminescence plate reader. Bioluminescence intensity was read on a Synergy H1 BioTek plate reader. Averages and standard deviation for viral titer observed under different treatment conditions were calculated in Microsoft Excel and graphed as the percent inhibition in PAV-951 treated cells compared to untreated cells.

In general, EC50 refers to the midpoint of the concentration-response curve. In turn, `CC(C)CCn1ccc2cc(N3CCN(c4ccc5c(ccn5CCC(C)C)c4)CC3)ccc21` [Compound 39] registered an EC50 in assay [1] of 3 µM.

Consider `CC(C)CCNc1ncnc2cc(N3CCN(c4ccc5c(NCCc6ccccc6)ncnc5c4)CC3)ccc12` [Compound 11], for which the EC50 was < 100 nM in assay [2] and 0.032 µM in assay [1].

With `CC(C)CCNc1ncnc2cc(N3CCN(c4ccc5c(NCCC6CCNCC6)ncnc5c4)CC3)ccc12` [Compound 36], the EC50 in assay [2] is < 12500 nM; in assay [1] it was 0.76 µM.

With `CC(C)CCN(C)c1ncnc2cc(N3CCN(c4ccc5c(N(C)CCC(C)C)ncnc5c4)CC3)ccc12` [Compound 26], the midpoint of the response in assay [1], the EC50, lay at 0.068 µM.

`CN1CCC(Nc2ncnc3cc(N4CCN(c5ccc6c(NC7CCN(C)CC7)ncnc6c5)CC4)ccc23)CC1` [Compound 38] displayed an EC50 in assay [1] of 1.4 µM.

Consider `c1ccc(CCNc2ncnc3cc(N4CCN(c5ccc6c(NCCc7ccccc7)ncnc6c5)CC4)ccc23)cc1` [Compound 1], for which the figures for the EC50 in assay [2] and in assay [1] were < 500 nM and 0.036 µM, respectively.

In the case of `CC(C)CC(=O)Nc1ncnc2cc(N3CCN(c4ccc5c(NC(=O)CC(C)C)ncnc5c4)CC3)ccc12` [Compound 43], the EC50 in assay [1] was > 10 µM.

In turn, `CC(C)CCNc1ncnc2cc(N3CCNCC3)ccc12` [Compound 35] yielded a concentration for a half-maximal effect (EC50) in assay [1] of 0.77 µM.

Molecule `CC(C)CCNc1ncnc2cc(N3CCN(c4ccc5ccn(CCC(C)C)c5c4)CC3)ccc12` [Compound 34] yielded a concentration giving a half-maximal response (EC50) in assay [1] of 0.2 µM.

As to `COc1ccc(CNc2ncnc3cc(N4CCN(c5ccc6c(NCc7ccc(OC)cc7)ncnc6c5)CC4)ccc23)cc1` [Compound 20], the EC50 in assay [1] was 0.028 µM.

Turning to `c1ccc(CCNc2ncnc3cc(N4CCN(c5ccc6c(NCCc7ccccn7)ncnc6c5)CC4)ccc23)nc1` [Compound 40], the EC50 in assay [2] is < 12500 nM; in assay [1], 0.091 µM.

Consider `CC(C)CCNc1ncnc2cc(N3CCN(c4ccc5c(NCCC(C)C)ncnc5c4)CC3)ccc12` [Compound 6], for which the 50% effective concentration (EC50) in assay [2] was < 500 nM; in assay [3], 340 nM; in assay [1] it was 0.024 µM.

On to `c1cc(CCNc2ncnc3cc(N4CCN(c5ccc6c(NCCc7ccncc7)ncnc6c5)CC4)ccc23)ccn1` [Compound 33], for which the results for the EC50 in assay [2] and in assay [1] were < 12500 nM and 0.03 µM, respectively.

Turning to `Cn1cccc1CCNc1ncnc2cc(N3CCN(c4ccc5c(NCCc6cccn6C)ncnc5c4)CC3)ccc12` [Compound 5], the half-maximal effective concentration (EC50) in assay [2] was < 2500 nM; in assay [3], 190 nM; in assay [1] it was 0.031 µM.

For the molecule `CC(C)(C)CNc1ncnc2cc(N3CCN(c4ccc5c(NCCc6ccccn6)ncnc5c4)CC3)ccc12` [Compound 68], the EC50 in assay [2] came to 500 nM.

With `CC(C)CCNc1ncnc2cc(N3CCN(c4ccc5c(NCCc6nccs6)ncnc5c4)CC3)ccc12` [Compound 81], the EC50 in assay [2] came to 500 nM.

Consider `c1cncc(CCNc2ncnc3cc(N4CCN(c5ccc6c(NCCc7cccnc7)ncnc6c5)CC4)ccc23)c1` [Compound 41], for which the values for the concentration for a half-maximal effect (EC50) in assay [2] and in assay [1] were < 12500 nM and 0.06 µM, respectively.

Regarding `CC(C)CCNc1ncnc2cc(N3CC(C)N(c4ccc5c(NCCC(C)C)ncnc5c4)CC3C)ccc12` (stereo not drawn) [Compound 54], the concentration giving a half-maximal response (EC50) in assay [2] amounted to 2500 nM.

Take `Clc1ccc2c(N3CCN(c4ncnc5cc(Cl)ccc45)CC3)ncnc2c1` [Compound 46]: the results for the EC50 in assay [3] and in assay [1] were 510 nM and > 10 µM, respectively.
